Results taken from ChEMBL document CHEMBL5316300, “Discovery of TP0597850: A Selective, Chemically Stable, and Slow Tight-Binding Matrix Metalloproteinase-2 Inhibitor with a Phenylbenzamide-Pentapeptide Hybrid Scaffold” (J Med Chem, 2023).

How the values were obtained:
[1] = target: T1, 72 kDa type IV collagenase (Homo sapiens, UniProt P08253); assay: Inhibition of human recombinant MMP2 using MOCAc-Lys-Pro-Leu-Gly-Leu-A2pr(Dnp)-Ala-Arg-N2 as substrate preincubated for 5 mins followed by substrate addition and measured after 120 mins by fluorescence based assay
Target sequence in this assay (P08253 whole entry): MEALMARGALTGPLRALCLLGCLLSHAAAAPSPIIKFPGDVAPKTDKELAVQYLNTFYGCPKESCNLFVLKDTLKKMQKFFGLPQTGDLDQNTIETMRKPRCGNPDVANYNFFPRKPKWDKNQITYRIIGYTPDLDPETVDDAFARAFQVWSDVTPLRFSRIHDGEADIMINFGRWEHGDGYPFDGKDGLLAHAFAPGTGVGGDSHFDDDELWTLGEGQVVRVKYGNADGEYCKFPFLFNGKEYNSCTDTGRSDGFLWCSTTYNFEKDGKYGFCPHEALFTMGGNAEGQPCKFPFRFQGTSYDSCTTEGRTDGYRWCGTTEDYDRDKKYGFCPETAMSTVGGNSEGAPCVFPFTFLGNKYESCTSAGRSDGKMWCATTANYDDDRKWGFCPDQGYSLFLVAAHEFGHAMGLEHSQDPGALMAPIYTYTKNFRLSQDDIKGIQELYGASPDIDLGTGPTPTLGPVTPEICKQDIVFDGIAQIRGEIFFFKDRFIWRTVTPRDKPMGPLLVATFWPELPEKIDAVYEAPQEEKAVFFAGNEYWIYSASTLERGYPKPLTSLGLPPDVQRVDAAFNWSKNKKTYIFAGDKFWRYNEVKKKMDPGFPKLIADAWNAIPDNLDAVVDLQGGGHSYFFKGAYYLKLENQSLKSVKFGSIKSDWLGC

Collagenase 3 = Collagenase 3 (Homo sapiens, UniProt P45452); assay: Inhibition of human recombinant MMP13 using MOCAc-Lys-Pro-Leu-Gly-Leu-A2pr(Dnp)-Ala-Arg-N2 as substrate preincubated for 15 mins followed by substrate addition and measured after 120 mins by fluorescence based assay
[2] = target: T2, Macrophage metalloelastase (Homo sapiens, UniProt P39900); assay: Inhibition of human recombinant MMP12 using MOCAc-Lys-Pro-Leu-Gly-Leu-A2pr(Dnp)-Ala-Arg-N2 as substrate preincubated for 15 mins followed by substrate addition and measured after 120 mins by fluorescence based assay
Homo sapiens [3] = organism: Homo sapiens; assay: Selectivity ratio of IC50 for recombinant human MMP12 to IC50 for recombinant human MMP2
[4] = target: T1, 72 kDa type IV collagenase; assay: Inhibition of recombinant human MMP2 using MOCAc-Lys-Pro-Leu-Gly-Leu-A2pr(Dnp)-Ala-Arg-N2 as substrate preincubated for 10 to 15 mins followed by substrate addition and measured after 60 to 120 mins by fluorescence based assay
Target sequence in this assay (P08253 whole entry): as above

[5] = target: Matrix metalloproteinase-9 (Homo sapiens, UniProt P14780); assay: Inhibition of human recombinant MMP9 using MOCAc-Lys-Pro-Leu-Gly-Leu-A2pr(Dnp)-Ala-Arg-N2 as substrate preincubated for 15 mins followed by substrate addition and measured after 120 mins by fluorescence based assay
[6] = target: T2, Macrophage metalloelastase; assay: Inhibition of human recombinant MMP12 using MOCAc-Lys-Pro-Leu-Gly-Leu-A2pr(Dnp)-Ala-Arg-N2 as substrate preincubated for 10 to 15 mins followed by substrate addition and measured after 60 to 120 mins by fluorescence based assay; conditions: read-out: IC50
Matrilysin = target: T3, Matrilysin (Homo sapiens, UniProt P09237); assay: Inhibition of human recombinant MMP7 using MOCAc-Lys-Pro-Leu-Gly-Leu-A2pr(Dnp)-Ala-Arg-N2 as substrate preincubated for 15 mins followed by substrate addition and measured after 120 mins by fluorescence based assay
T3 sequence (P09237 whole entry): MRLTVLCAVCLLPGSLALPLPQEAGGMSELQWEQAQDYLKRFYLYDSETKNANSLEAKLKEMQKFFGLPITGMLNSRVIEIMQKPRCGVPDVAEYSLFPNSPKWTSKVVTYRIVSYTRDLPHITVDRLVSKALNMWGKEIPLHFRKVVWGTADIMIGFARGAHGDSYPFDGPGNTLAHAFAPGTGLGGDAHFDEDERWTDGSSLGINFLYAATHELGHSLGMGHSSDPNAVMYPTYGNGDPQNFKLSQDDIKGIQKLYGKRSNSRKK

[7] = target: MMP-1/MMP-2 (Homo sapiens) (UniProt P08253+P03956); assay: Selectivity ratio of Ki for recombinant human MMP1 to Ki for recombinant human MMP2; type: protein assay
[8] = target: Matrix metalloproteinase-14 (Homo sapiens, UniProt P50281); assay: Inhibition of human recombinant MMP14 using MOCAc-Lys-Pro-Leu-Gly-Leu-A2pr(Dnp)-Ala-Arg-N2 as substrate preincubated for 15 mins followed by substrate addition and measured after 120 mins by fluorescence based assay
Neutrophil collagenase = Neutrophil collagenase (Homo sapiens, UniProt P22894); assay: Inhibition of human recombinant MMP8 using MOCAc-Lys-Pro-Leu-Gly-Leu-A2pr(Dnp)-Ala-Arg-N2 as substrate preincubated for 15 mins followed by substrate addition and measured after 120 mins by fluorescence based assay
[9] = Chemical stability of the compound in phosphate buffer at pH 4 assessed as residual rate incubated for 2 weeks by HPLC analysis; type: physicochemical; conditions: read-out: Stability
[10] = Chemical stability of the compound in phosphate buffer at pH 9 assessed as residual rate incubated for 2 weeks by HPLC analysis; type: physicochemical; conditions: read-out: Stability
[11] = Metabolic stability in human serum assessed as parent compound remaining measured for 4 hrs; type: ADME, cell-free; conditions: read-out: Stability
Homo sapiens [12] = organism: Homo sapiens; assay: Selectivity ratio of Ki for recombinant human MMP8 to Ki for recombinant human MMP2
[13] = target: T1, 72 kDa type IV collagenase; assay: Inhibition of human recombinant MMP2 using MOCAc-Lys-Pro-Leu-Gly-Leu-A2pr(Dnp)-Ala-Arg-N2 as substrate preincubated for 15 mins followed by substrate addition and measured after 120 mins by fluorescence based assay
Target sequence in this assay (P08253 whole entry): as the sequence (P08253 whole entry) above

Homo sapiens [14] = organism: Homo sapiens; assay: Selectivity ratio of Ki for recombinant human MMP12 to Ki for recombinant human MMP2
[15] = target: T4, MMP-2/MMP-13 (Homo sapiens) (UniProt P08253+P45452); assay: Selectivity ratio of Ki for recombinant human MMP13 to Ki for recombinant human MMP2; type: protein assay
[16] = target: T1, 72 kDa type IV collagenase; assay: Binding affinity to human MMP2 assessed as dissociative half-life
Target sequence in this assay (P08253 110-660 limits assumed): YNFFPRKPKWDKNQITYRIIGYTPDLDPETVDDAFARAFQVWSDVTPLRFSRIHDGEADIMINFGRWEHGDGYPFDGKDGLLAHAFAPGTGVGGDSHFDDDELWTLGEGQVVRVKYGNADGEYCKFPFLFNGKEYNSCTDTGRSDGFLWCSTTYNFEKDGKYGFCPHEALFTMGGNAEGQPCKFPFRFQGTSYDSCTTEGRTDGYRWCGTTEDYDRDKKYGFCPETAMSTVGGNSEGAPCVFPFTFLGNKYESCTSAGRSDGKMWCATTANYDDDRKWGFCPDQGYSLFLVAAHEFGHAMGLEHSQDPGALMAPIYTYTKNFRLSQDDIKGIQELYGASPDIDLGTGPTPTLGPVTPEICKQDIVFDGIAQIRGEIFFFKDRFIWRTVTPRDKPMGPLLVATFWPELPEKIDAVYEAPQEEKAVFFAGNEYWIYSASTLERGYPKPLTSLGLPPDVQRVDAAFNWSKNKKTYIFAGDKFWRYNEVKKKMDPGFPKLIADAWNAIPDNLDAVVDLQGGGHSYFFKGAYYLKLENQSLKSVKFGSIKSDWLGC

Stromelysin-1 = Stromelysin-1 (Homo sapiens, UniProt P08254); assay: Inhibition of human recombinant MMP3 using MOCAc-Lys-Pro-Leu-Gly-Leu-A2pr(Dnp)-Ala-Arg-N2 as substrate preincubated for 15 mins followed by substrate addition and measured after 120 mins by fluorescence based assay
[17] = target: T4, MMP-2/MMP-13 (Homo sapiens); assay: Selectivity ratio of IC50 for recombinant human MMP13 to IC50 for recombinant human MMP2; type: protein assay
Homo sapiens [18] = organism: Homo sapiens; assay: Selectivity ratio of Ki for recombinant human MMP3 to Ki for recombinant human MMP2
[19] = Chemical stability of the compound in phosphate buffer at pH 7.4 assessed as residual rate incubated for 2 weeks by HPLC analysis; type: physicochemical; conditions: read-out: Stability
Interstitial collagenase = target: T5, Interstitial collagenase (Homo sapiens, UniProt P03956); assay: Inhibition of human recombinant MMP1 using MOCAc-Lys-Pro-Leu-Gly-Leu-A2pr(Dnp)-Ala-Arg-N2 as substrate preincubated for 15 mins followed by substrate addition and measured after 120 mins by fluorescence based assay
T5 sequence (P03956 whole entry): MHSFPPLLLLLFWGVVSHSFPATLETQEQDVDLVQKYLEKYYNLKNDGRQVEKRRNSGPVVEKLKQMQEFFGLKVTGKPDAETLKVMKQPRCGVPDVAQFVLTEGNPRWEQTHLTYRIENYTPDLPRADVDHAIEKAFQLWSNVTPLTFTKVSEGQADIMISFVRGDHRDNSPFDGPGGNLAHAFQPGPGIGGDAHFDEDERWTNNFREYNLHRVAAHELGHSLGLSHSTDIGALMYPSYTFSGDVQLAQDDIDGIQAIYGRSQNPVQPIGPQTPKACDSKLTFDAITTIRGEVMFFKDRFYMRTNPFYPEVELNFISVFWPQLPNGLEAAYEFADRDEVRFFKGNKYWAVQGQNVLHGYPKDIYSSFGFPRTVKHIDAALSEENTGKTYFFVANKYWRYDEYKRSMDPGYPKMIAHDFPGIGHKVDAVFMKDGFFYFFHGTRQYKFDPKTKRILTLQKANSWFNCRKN

[20] = target: MMP-2/MMP-14 (Homo sapiens) (UniProt P50281+P08253); assay: Selectivity ratio of Ki for recombinant human MMP14 to Ki for recombinant human MMP2; type: protein assay
[21] = target: MMP-2/MMP-9 (Homo sapiens) (UniProt P08253+P14780); assay: Selectivity ratio of Ki for recombinant human MMP9 to Ki for recombinant human MMP2; type: protein assay

T4 sequence (P08253 whole entry, looked up, other chains not shown): as the sequence (P08253 whole entry) above
T2 sequence (P39900 whole entry): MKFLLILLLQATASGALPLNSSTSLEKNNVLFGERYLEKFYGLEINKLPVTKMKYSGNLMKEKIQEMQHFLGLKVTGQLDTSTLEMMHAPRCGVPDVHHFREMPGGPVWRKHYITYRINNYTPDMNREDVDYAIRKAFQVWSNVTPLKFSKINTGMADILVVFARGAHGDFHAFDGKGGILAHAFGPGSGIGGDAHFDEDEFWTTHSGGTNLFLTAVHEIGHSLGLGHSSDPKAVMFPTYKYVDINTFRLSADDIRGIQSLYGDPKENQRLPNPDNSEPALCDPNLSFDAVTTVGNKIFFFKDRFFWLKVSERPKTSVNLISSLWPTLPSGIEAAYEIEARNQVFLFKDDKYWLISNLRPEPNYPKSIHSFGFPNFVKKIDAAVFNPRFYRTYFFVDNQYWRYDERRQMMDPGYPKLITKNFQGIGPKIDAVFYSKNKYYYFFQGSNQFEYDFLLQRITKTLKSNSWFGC
Chain of Matrix metalloproteinase-9 (P14780 whole entry): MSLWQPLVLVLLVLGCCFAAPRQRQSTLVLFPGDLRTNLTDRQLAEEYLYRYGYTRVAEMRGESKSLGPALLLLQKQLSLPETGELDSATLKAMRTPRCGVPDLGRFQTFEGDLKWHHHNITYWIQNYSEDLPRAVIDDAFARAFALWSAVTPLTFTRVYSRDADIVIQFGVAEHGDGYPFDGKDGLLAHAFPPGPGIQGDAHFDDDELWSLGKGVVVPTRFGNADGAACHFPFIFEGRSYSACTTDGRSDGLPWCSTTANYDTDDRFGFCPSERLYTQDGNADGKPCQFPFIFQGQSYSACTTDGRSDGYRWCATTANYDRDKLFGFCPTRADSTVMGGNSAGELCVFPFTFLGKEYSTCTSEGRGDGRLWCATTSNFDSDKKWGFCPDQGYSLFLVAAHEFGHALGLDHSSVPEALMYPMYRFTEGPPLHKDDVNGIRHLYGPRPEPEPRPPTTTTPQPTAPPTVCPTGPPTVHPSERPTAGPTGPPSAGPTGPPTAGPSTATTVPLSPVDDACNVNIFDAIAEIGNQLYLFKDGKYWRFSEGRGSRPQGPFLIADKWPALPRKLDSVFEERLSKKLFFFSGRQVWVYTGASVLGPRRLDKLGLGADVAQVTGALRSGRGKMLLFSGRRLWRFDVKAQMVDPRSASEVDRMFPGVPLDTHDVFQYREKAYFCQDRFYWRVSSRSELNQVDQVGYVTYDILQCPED
Chain of MMP-1/MMP-2 (Homo sapiens) (P08253 whole entry, looked up, one chain of several): as the sequence (P08253 whole entry) above
Chain of Neutrophil collagenase (P22894 whole entry): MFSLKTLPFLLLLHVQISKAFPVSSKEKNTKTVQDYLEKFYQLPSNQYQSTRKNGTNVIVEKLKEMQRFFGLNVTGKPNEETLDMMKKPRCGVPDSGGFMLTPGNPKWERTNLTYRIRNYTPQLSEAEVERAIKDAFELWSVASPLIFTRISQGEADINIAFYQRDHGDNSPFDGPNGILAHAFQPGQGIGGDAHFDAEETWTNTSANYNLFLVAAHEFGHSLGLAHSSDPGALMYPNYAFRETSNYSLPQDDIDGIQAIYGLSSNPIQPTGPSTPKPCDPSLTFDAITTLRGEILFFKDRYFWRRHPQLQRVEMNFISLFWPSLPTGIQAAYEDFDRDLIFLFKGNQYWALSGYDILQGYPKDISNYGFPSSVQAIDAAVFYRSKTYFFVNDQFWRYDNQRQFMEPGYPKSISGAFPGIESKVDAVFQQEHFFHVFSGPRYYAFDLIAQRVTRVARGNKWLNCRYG
Chain of Stromelysin-1 (P08254 whole entry): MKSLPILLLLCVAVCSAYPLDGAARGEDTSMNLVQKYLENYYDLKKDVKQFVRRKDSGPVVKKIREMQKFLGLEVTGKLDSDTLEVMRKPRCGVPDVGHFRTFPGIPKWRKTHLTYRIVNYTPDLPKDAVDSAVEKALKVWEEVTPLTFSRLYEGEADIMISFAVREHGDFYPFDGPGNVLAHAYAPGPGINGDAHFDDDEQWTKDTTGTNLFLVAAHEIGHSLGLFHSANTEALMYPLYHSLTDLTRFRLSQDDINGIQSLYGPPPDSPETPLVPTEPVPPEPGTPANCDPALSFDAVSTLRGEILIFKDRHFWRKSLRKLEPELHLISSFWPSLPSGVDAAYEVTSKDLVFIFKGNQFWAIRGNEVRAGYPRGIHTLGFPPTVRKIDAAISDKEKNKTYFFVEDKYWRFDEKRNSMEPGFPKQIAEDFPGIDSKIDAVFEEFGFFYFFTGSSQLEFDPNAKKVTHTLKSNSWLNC

## CC(C)C[C@H](NC(=O)[C@@H]1C[C@H](N)CN1C(=O)CC[C@@H](NS(=O)(=O)c1ccc(NC(=O)c2ccc(C(N)=O)cc2)cc1)C(=O)O)C(=O)N(C)[C@@H](CCC(=O)O)C(=O)NCCCCC(N)=O
[1]
  IC50: 0.034 nM
Collagenase 3
  Ki: 110 nM
[2]
  Ki: 170 nM
Homo sapiens [3]
  Ratio IC50: 1100
[4]
  Ki: 0.034 nM
[5]
  Ki: 1900 nM
[6]
  IC50: 250 nM
Matrilysin
  Ki: 150000 nM
[7]
  Ratio Ki: 7.9e+06
[8]
  Ki: 68 nM
Neutrophil collagenase
  IC50: 1800 nM
[9]
  remaining at 336 h: 98.7%
[10]
  remaining at 336 h: 98.1%
[11]
  remaining at 4 h: 93.1%
Homo sapiens [12]
  Ratio Ki: 53000
[13]
  IC50: 0.22 nM
Homo sapiens [14]
  Ratio Ki: 5000
[15]
  Ratio Ki: 3200
[16]
  T1/2: 4.42 h
Stromelysin-1
  Ki: 4900 nM
[17]
  Ratio IC50: 1100
Homo sapiens [18]
  Ratio Ki: 140000
[19]
  remaining at 336 h: 99%
Interstitial collagenase
  IC50: 270000 nM
[20]
  Ratio Ki: 2000
[21]
  Ratio Ki: 56000
